Data set [1] concerns the target T1, CYP2D6 (Homo sapiens, UniProt P10635).
T1 construct: A system of 100 μL human liver microsomes; from tissue; host or cells: human liver microsomes
The data set is described as follows: Direct inhibition (DI) of CYP2D6 in human liver microsomes. The data set is classed as in vitro ADME. To be noted: probe Dextromethorphan, human liver microsomes 0.2 mg/mL, 10 μM compound, read-out: Direct inhibition (DI) 2D6 (Dextromethorphan). Here is the method:
(§1) Study on Direct Inhibition (DI) of CYP3A4, CYP2D6, CYP2C9, CYP2C19, CYP1A2
(§2) A system of 100 μL human liver microsomes (final concentration: 0.2 mg/mL) was used for direct inhibition under warm incubation. The system contained NADPH (final concentration: 1 mM), 10 μM compound, a positive inhibitor cocktail (Ketoconazole 10 μM, Quinidine: 10 μM, Sulfaphenazole: 100 μM, Naphthoflavone: 10 μM, Tranylcypromene 1000 μM), a negative control 10 μM DMSO and mixed probe substrates (Midazolam 10 μM, Testosterone 100 μM, Dextromethophan 10 μM, Diclofenac 20 μM, Phenetin 100 μM, Mephenytoin 100 μM). The reaction was terminated after incubation for 20 minutes. The relative activity of the enzymes was calculated by measuring the relative production of metabolites.

For data set [2], the target named is T2, CYP2C19 (Homo sapiens, UniProt P33261).
T2 construct: A system of 100 μL human liver microsomes; from tissue; host or cells: human liver microsomes
T2 sequence (P33261 whole entry): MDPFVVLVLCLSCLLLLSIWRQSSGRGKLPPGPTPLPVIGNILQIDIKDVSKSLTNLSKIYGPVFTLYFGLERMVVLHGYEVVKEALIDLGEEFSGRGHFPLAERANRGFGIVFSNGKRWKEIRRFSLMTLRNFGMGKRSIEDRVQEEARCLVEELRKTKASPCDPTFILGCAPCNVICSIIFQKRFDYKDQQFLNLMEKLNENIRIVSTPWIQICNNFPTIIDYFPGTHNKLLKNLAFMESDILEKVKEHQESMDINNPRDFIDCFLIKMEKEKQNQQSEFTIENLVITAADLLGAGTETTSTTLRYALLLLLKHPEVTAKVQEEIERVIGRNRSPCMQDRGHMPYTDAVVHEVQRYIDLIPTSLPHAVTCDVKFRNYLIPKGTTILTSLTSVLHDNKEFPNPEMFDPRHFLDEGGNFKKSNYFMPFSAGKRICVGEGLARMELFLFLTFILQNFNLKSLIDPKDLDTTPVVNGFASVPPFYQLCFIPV
In words: Direct inhibition (DI) of CYP2C19 in human liver microsomes. In kind it is in vitro ADME. To be noted: probe Mephenytoin, human liver microsomes 0.2 mg/mL, 10 μM compound, read-out: Direct inhibition (DI) 2C19 (Mephenytoin). Here is the method: as §1, §2
On the technique in general: Microsomes from liver hold many membrane-bound enzymes, among them those of drug oxidation.

For data set [3], the target named is T3, CYP2C9 (Homo sapiens, UniProt P11712).
T3 construct: A system of 100 μL human liver microsomes; from tissue; host or cells: human liver microsomes
T3 sequence (P11712 whole entry): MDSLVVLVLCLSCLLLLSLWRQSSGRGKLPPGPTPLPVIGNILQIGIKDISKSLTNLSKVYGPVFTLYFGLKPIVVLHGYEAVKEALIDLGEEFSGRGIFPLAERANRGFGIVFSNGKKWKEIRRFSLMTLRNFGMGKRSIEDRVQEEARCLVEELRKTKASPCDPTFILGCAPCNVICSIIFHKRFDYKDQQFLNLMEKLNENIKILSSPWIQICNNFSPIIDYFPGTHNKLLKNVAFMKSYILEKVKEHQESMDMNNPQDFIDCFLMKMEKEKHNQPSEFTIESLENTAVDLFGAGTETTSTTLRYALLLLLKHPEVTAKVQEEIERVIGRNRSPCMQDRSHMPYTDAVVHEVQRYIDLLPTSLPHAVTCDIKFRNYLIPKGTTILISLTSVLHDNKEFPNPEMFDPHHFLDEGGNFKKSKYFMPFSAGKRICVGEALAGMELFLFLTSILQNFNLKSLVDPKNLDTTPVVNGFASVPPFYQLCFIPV
In words: Direct inhibition (DI) of CYP2C9 in human liver microsomes. The data set is classed as in vitro ADME. Particulars: probe Diclofenac, human liver microsomes 0.2 mg/mL, 10 μM compound, read-out: Direct inhibition (DI) 2C9 (Diclofenac). Here is the method:
as §1, §2

Data set [4] deals with T4, ErbB2 kinase (Homo sapiens, UniProt P04626).
T4 construct: The final concentration of ErbB2 kinase was 0.06 ng/μL
T4 sequence (P04626 23-1255): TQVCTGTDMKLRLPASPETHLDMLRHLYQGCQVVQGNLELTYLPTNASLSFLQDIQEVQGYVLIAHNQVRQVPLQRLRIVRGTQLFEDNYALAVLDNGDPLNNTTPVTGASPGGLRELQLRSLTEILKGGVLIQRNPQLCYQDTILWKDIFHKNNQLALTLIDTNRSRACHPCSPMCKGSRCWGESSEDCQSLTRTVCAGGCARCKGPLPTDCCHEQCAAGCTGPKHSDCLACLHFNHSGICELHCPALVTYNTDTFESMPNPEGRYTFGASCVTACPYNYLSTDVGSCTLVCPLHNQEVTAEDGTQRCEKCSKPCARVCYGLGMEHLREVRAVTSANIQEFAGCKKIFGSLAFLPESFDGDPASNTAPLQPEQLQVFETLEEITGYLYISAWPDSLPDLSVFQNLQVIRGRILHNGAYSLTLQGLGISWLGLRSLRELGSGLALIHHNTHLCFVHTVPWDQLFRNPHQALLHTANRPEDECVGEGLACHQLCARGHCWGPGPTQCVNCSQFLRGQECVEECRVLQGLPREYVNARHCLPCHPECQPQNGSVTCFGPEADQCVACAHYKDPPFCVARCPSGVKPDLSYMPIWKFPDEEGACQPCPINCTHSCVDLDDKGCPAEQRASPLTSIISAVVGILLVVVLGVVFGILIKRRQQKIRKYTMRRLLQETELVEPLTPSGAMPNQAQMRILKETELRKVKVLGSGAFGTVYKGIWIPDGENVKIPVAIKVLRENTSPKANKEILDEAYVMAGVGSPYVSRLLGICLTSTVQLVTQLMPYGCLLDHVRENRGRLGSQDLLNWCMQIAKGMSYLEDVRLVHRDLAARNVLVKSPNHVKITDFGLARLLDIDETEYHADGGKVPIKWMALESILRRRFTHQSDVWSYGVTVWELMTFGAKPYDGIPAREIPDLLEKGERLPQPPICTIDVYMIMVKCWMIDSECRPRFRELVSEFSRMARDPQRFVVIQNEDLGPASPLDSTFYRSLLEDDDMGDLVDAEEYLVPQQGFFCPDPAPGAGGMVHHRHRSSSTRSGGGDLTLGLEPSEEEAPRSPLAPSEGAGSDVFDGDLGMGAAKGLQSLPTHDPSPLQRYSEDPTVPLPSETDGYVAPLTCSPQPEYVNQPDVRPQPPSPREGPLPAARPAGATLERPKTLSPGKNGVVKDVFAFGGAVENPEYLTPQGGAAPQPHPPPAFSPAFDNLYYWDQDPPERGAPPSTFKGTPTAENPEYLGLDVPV
In words: EGFR/ErbB2 enzymatic experiment (HTRF kinEASE-TK), ErbB2. The data set is classed as biochemical. Particulars: ErbB2 kinase 0.06 ng/μL, ATP 4 μM; read-out: Kinase IC50 (nM) in vitro ErbB2. Background: In TR-FRET formats the signal depends on donor and acceptor labels being close together.

The target in data set [5] is T5, CYP3A4 (Homo sapiens, UniProt P08684).
T5 construct: A system of 100 μL human liver microsomes; from tissue; host or cells: human liver microsomes
T5 sequence (P08684 whole entry): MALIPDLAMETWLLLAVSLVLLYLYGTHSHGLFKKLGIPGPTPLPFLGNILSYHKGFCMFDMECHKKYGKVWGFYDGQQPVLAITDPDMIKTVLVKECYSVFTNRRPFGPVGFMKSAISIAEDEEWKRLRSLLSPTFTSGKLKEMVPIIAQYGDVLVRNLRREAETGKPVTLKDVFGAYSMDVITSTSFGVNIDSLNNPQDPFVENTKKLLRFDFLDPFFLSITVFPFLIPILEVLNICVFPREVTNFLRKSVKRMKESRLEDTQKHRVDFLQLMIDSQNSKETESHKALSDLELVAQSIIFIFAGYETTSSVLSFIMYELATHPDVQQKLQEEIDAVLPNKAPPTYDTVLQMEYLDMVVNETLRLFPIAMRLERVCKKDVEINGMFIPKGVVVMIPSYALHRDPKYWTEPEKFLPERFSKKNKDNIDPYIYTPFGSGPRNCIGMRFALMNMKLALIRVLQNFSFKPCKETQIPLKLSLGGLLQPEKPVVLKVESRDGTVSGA
In words: Direct inhibition (DI) of CYP3A4 in human liver microsomes. In kind it is in vitro ADME. To be noted: human liver microsomes 0.2 mg/mL, 10 μM compound. Here is the method:
as §1, §2

Data set [6] deals with N87 (human gastric cancer cell NCI-N87). In words: In vitro proliferation inhibition assay of cell lines (CellTiter-Glo), N87. The data set is classed as cell-based. To be noted: N87 cells, 72 hours. In outline:
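Cells seeded overnight (BT-474 8.8×10^4 cells/mL, N87 6.6×10^4 cells/mL), then exposed to 9 compound concentrations in duplicate for 72 hours at 37° C, 5% CO2. Viability read by CellTiter-Glo luminescence.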
A general note: ATP-based viability assays read luminescence as a measure of living cells.

Data set [7] relates to BT-474 (human breast cancer cell). In words: In vitro proliferation inhibition assay of cell lines (CellTiter-Glo), BT-474. In kind it is cell-based. To be noted: BT-474 cells, 72 hours. In short, it runs like this:
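Cells were exposed to nine compound concentrations in duplicate for 72 h at 37 °C and 5% CO2. Viability was read with CellTiter-Glo reagent after equilibration at room temperature.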

For data set [8], the target named is T6, CYP1A2 (Homo sapiens, UniProt P05177).
T6 construct: A system of 100 μL human liver microsomes; from tissue; host or cells: human liver microsomes
T6 sequence (P05177 1-516): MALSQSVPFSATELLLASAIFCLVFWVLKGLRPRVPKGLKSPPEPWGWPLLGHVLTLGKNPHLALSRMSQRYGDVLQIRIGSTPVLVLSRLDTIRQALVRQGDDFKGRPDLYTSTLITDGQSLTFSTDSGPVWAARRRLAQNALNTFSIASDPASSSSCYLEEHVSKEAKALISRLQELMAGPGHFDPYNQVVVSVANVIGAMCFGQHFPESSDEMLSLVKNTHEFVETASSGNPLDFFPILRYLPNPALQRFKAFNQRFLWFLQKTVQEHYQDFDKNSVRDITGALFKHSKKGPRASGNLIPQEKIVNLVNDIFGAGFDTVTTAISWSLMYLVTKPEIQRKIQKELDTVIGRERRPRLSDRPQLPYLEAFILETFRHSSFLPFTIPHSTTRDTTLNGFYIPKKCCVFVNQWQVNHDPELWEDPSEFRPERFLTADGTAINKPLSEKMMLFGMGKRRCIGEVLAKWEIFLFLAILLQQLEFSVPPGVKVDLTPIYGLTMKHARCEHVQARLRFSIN
In words: Direct inhibition (DI) of CYP1A2 in human liver microsomes. The data set is classed as in vitro ADME. To be noted: probe Phenacetin, human liver microsomes 0.2 mg/mL, 10 μM compound, read-out: Direct inhibition (DI) 1A2 (Phenacetin). Here is the method: as §1, §2

In data set [9] the target is EGFR kinase (Homo sapiens, UniProt P00533). In words: EGFR/ErbB2 enzymatic experiment (HTRF kinEASE-TK), EGFR. Particulars: EGFR kinase 0.06 units/μL, ATP 1.65 μM; read-out: Kinase IC50 (nM) in vitro EGFR. The data set is classed as biochemical.
Sequence of EGFR kinase (P00533 25-1210): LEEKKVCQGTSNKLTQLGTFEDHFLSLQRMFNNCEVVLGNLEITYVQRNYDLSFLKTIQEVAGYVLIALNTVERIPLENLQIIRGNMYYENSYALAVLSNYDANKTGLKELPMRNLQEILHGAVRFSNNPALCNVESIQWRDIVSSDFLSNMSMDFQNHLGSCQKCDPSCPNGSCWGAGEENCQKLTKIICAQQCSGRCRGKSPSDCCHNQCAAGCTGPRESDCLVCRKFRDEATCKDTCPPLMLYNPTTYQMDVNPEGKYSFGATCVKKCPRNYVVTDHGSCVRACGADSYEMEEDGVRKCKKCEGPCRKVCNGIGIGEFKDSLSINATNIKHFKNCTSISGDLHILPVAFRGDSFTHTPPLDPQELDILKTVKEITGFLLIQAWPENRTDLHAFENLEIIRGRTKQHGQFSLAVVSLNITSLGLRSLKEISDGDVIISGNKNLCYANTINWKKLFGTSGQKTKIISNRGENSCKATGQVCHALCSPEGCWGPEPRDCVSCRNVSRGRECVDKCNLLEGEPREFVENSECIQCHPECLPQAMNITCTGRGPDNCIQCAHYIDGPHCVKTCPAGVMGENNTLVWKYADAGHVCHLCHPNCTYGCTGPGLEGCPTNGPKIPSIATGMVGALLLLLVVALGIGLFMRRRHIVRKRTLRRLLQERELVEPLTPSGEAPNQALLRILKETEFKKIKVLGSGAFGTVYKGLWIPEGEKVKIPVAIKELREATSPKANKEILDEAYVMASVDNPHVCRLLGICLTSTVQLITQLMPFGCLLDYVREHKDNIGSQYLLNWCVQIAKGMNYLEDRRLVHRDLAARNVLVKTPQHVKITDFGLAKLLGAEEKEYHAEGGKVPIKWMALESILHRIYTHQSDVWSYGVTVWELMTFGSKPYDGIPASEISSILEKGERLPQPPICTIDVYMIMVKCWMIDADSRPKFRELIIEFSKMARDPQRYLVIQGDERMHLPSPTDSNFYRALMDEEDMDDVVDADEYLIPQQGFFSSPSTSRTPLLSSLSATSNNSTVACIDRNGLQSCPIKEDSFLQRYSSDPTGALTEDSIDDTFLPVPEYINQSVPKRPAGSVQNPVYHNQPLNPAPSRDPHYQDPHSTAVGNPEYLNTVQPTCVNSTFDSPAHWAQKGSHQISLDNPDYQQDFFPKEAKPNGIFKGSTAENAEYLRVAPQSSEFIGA
[10] abbreviates: probe Midazolam, read-out: Direct inhibition (DI) 3A4 (Midazolam).
[11] abbreviates: probe Testosterone, read-out: Direct inhibition (DI) 3A4 (testosterone).

Where two headings read alike, the source gives them in different places.

T1 sequence (P10635 whole entry): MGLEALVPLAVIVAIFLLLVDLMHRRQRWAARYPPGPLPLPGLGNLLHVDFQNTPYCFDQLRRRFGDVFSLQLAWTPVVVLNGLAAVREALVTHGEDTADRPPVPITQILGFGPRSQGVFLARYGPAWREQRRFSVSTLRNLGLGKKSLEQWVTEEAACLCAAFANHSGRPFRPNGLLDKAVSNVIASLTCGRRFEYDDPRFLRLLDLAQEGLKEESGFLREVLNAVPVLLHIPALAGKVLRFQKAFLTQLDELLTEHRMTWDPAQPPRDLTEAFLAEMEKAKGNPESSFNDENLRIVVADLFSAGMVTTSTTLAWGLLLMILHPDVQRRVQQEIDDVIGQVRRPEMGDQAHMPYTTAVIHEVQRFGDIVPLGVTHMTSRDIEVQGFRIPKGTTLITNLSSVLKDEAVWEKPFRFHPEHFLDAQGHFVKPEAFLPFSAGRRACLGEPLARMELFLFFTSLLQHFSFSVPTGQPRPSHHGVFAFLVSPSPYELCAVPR

On to `Cc1cc(Nc2c(C#N)cnc3ccc(NC(=O)/C=C/[C@H]4CCCN4C)cc23)ccc1Oc1cc2nncn2cn1` [Final product of Embodiment 23, (R,E)-N-(4-((4-([1,2,4]triazolo[4,3-c]pyrimidin-7-yloxy)-3-methylphenyl)amino)-3-cyanoquinolin-6-yl)-3-(1-methylpyrrolidin-2-yl)acrylamide], for which the inhibition at 20 min, 10 µM in [1] is 13%; in [2], 10%; in data set [3], 1%; in data set [5] (setting [10]), below 0%; in [5] (setting [11]), 18%; in [8], below 0%. In addition, the half-maximal inhibitory concentration (IC50) in data set [4] amounted to 7.56 nM; in data set [6], 5.43 nM; in data set [7] it was 4.2 nM; in data set [9] it was 1.62 nM.
For `CCOc1cc2ncnc(Nc3ccc(Oc4ccn5ncnc5c4)c(C)c3)c2cc1NC(=O)/C(F)=C\[C@H]1CCCN1C` [Final product of Embodiment 44], the inhibition at 20 min, 10 µM in [1] was 36%; in [2], 27%; in data set [3] it was 11%; in [5] (setting [10]), below 0%; in [5] (setting [11]), 13%; in data set [8], 12%. The 50% inhibitory concentration (IC50) is 2.4 nM in data set [4], 1.2 nM in data set [6], 2 nM in data set [7] and 32.6 nM in data set [9].
Regarding `C=CC(=O)N1CCCC(Nc2ccc3ncnc(Nc4ccc(Oc5cc6nncn6cn5)c(C)c4)c3c2)C1` (stereo in doubt) [Final product of Embodiment 8, (R)-1-(3-((4-((4-([1,2,4]triazolo[4,3-c]pyrimidin-7-yloxy)-3-methylphenyl)amino)quinazolin-6-yl)amino)piperidin-1-yl)propan-2-en-1-one], the inhibition at 20 min, 10 µM in data set [1] is 11%; in data set [2], 28%; in [3] it was 17%; in data set [5] (setting [10]) it was 61%; in data set [5] (setting [11]), 72%; in [8] it was 11%. Besides, the IC50 in data set [4] was determined as 17.5 nM; in data set [6], 19.4 nM; in [7], 10.3 nM; in data set [9], 136 nM.
Turning to `CCOc1cc2ncnc(Nc3ccc(Oc4cc5nncn5cn4)c(C)c3)c2cc1NC(=O)/C=C/[C@H]1CCCN1` [Final product of Embodiment 17, (R,E)-N-(4-((4-([1,2,4]triazolo[4,3-c]pyrimidin-7-yloxy)-3-methylphenyl)amino)-7-ethoxyquinazolin-6-yl)-3-(pyrrolidin-2-yl)acrylamide], the inhibition at 20 min, 10 µM is 4% in data set [1]; 9% in data set [2]; 8% in data set [3]; 17% in data set [5] (setting [10]); 34% in data set [5] (setting [11]); 3% in data set [8]. For the same molecule, the 50% inhibitory concentration (IC50) in [4] was found to be 0.488 nM; in data set [6] it was 4.97 nM; in data set [7], 5.31 nM; in data set [9], 0.251 nM.
With `C=CC(=O)N[C@H]1CCCN(c2ccc3ncnc(Nc4ccc(Oc5cc6nncn6cn5)c(C)c4)c3c2)C1` [Final product of Embodiment 5, (S)—N-(1-(4-((4-([1,2,4]triazolo[4,3-c]pyrimidin-7-yloxy)-3-methylphenyl)amino)quinazolin-6-yl)piperidin-3-yl)acrylamide], the inhibition at 20 min, 10 µM amounted to 14% in data set [1]; 18% in data set [2]; 49% in data set [3]; 71% in [5] (setting [10]); 74% in [5] (setting [11]); 9% in data set [8]. The half-maximal inhibitory concentration (IC50) in data set [4] turned out to be 2.04 nM; in [6], 20.1 nM; in [7], 14.4 nM; in data set [9] it was 62.1 nM.
With `Cc1cc(Nc2ncnc3ccc(NC(=O)/C=C/[C@H]4CCCN4C)cc23)ccc1Oc1ccc2nccn2c1` [Final product of Embodiment 24], the inhibition at 20 min, 10 µM in [1] amounted to 90%; in data set [2], 36%; in [3] it was 48%; in data set [5] (setting [10]) it was 36%; in data set [5] (setting [11]), 48%; in data set [8], 18%. Moreover, the IC50 was 6.46 nM in [4], 2.93 nM in [6], 4.6 nM in [7] and 4.08 nM in [9].
As to `C=CC(=O)N[C@@H]1CCCN(c2ccc3ncnc(Nc4ccc(Oc5cc6nncn6cn5)c(C)c4)c3c2)C1` [Final product of Embodiment 3, (R)—N-(1-(4-((4-([1,2,4]triazolo[4,3-c]pyrimidin-7-yloxy)-3-methylphenyl)amino)quinazolin-6-yl)piperidin-3-yl) acrylamide], the inhibition at 20 min, 10 µM in data set [1] was 4%; in [2], 9%; in [3] it was 26%; in data set [5] (setting [10]), 54%; in data set [5] (setting [11]) it was 61%; in data set [8], 14%. The IC50 in data set [4] was determined as 3.83 nM; in data set [6], 15.6 nM; in data set [7], 15.3 nM; in [9] it was 24.3 nM.
Turning to `Cc1cc(Nc2ncnc3ccc(NC(=O)/C(F)=C/[C@H]4CCCN4C)cc23)ccc1Oc1cc2nncn2cn1` [Final product of Embodiment 43], the inhibition at 20 min, 10 µM in data set [1] is 69%; in data set [2], below 0%; in [3] it was below 0%; in [5] (setting [10]), below 0%; in data set [5] (setting [11]) it was below 0%; in data set [8] it was below 0%. The IC50 in data set [4] came out at 2.6 nM; in data set [6] it was 1.3 nM; in [7], 1.8 nM; in data set [9] it was 4.7 nM.
For the molecule `C=CC(=O)NC1CCC=C(c2ccc3ncnc(Nc4ccc(Oc5cc6nncn6cn5)c(C)c4)c3c2)C1` (stereo not shown) [Final product of Embodiment 1, N-(3-(4-((4-([1,2,4]triazolo[4,3-c]pyrimidin-7-yloxy)-3-methylphenyl)amino)quinazolin-6-yl)cyclohex-3-en-1-yl)acrylamide], the inhibition at 20 min, 10 µM in data set [1] was determined as 25%; in data set [2], 37%; in data set [3] it was 74%; in [5] (setting [10]), 91%; in [5] (setting [11]), 94%; in [8], 47%. Besides, the IC50 in [4] is 0.947 nM; in data set [6], 4.45 nM; in data set [7], 5.07 nM; in data set [9], 14.4 nM.
With `CCOc1cc2ncnc(Nc3ccc(Oc4ccn5ncnc5c4)c(C)c3)c2cc1NC(=O)/C(F)=C/[C@@H]1CCCN1C` [Final product of Embodiment 47], the inhibition at 20 min, 10 µM in data set [1] was 54%; in [2], 47%; in [3], 34%; in [5] (setting [10]), 33%; in [5] (setting [11]) it was 42%; in [8], 35%. Further, the IC50 in data set [4] is 4.2 nM; in data set [6], 3.8 nM; in [7], 7.1 nM; in data set [9], 38.5 nM.

The term inhibition denotes the drop in the measured response relative to a control, in per cent. The term IC50 denotes the concentration needed to halve the response being measured.

(Values after patent US11578074B2, “Nitrogenous heterocyclic compound, preparation method, intermediate, composition, and application” (SHANGHAI PHARMACEUTICALS HOLDING CO., LTD., priority 2017, dated 2023).)
